In US20040151679A1, “Dissolving agent for melanin” (priority 2001, published 2004):

Assay: Rate of dissolution of model melanin and color of its solutions
Type: physicochemical, Aspergillus niger
Conditions: for Time of dissolution: model melanin; for Color of the solution: solution of model melanin

Compound | pH of the solution | Time of dissolution (not dissolved within this time) | Time of dissolution (1 mg/ml in PFOC) [min] | Color of the solution | Time of dissolution [min]
CCN(CC)CC [Triethylamine] | 8 | Not dissolved in 5 hours |  |  | 
FC1(F)C(F)(F)C(F)(F)C2(F)C(F)(F)C(F)(F)C(F)(F)C(F)(F)C2(F)C1(F)F (stereo not drawn) [Perfluorodecalin (PFD), perfluorodecalin] | 7 |  | 0.5 | Colorless | 
FC(F)(Br)C(F)(F)Br [1,2-dibromtetrafluoroethane] | 7 |  |  | Colorless | 5
OO [4% solution of HP, hydrogen peroxide] | 3.5 | Not dissolved in 5 hours |  |  | 
NCCO [Monoethanolamine] | 10 |  |  | -”- | 2
CC(=O)O [0.01 N solution of acetic acid, acetic acid] | 3.5 | Not dissolved in 5 hours |  |  | 
FC(F)(F)C(F)(F)C(F)(F)N(C(F)(F)C(F)(F)C(F)(F)F)C(F)(F)C(F)(F)C(F)(F)F [Tri(perfluoropropyl)amine (TPA), tri(perfluoropropyl)amine] | 7 |  | 0.5 | Colorless | 
N [0.01% ammonia, ammonia] | 10.5 |  |  | -”- | 5
FN(F)C1(C(F)(F)F)C(F)(F)C(F)(F)C(F)(F)C(F)(C(F)(F)F)C1(F)F (stereo not drawn) [Perfluoro-1,3-dimethyl-cyclohexylamine] | 7 |  |  | Lemon | 3
[Na+].[OH-] [0.01 N sodium hydroxide, sodium hydroxide] | 9.5 |  |  | Yellow- | 6
